# Reference: ChEMBL document CHEMBL1201862, “PubChem BioAssay data set” (2004)
# The source made the active and inactive calls.
# Assays:
# [1] = molecular target: T1, Endoribonuclease toxin MazF (Escherichia coli K-12, UniProt P0AE70); test: fluorescent RNA oligo signal without MazF, dose response, counter-screen for MazEF activator project, biochemical, fluorescence, single-stranded RNase substrate (AID 588502); format: functional
# T1 sequence (P0AE70 whole entry): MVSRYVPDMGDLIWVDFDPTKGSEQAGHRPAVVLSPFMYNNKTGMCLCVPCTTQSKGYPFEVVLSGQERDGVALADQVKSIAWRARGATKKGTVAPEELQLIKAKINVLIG
# [2] = molecular target: T1, Endoribonuclease toxin MazF; test: MazF toxin RNase activators, dose response, biochemical, fluorescence, single-stranded RNA substrate, uHTS hits (AID 588481); format: functional
# BJ [3] = test: cytotoxicity toward BJ-TERT-LT-ST fibroblasts, dose response, cell-based, RAS-independent, luminescence (AID 1935); format: functional; settings: Homo sapiens;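 also: BJ fibroblasts immortalized with TERT plus LT and ST oncogenes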
# BJ [4] = test: cells; format: functional, cell-based; settings: Homo sapiens
# BJ [5] = test: cytotoxicity toward BJ-TERT fibroblasts, dose response, cell-based, RAS-independent, luminescence (AID 1933); format: functional; settings: Homo sapiens
# [6] = molecular target: T2, Microphthalmia-associated transcription factor (Homo sapiens, UniProt O75030); test: TRPM1 promoter luciferase signal decrease, dose response, MITF inhibitor project, cell-based, SK-MEL-5, cherry-picked, set 3 (AID 493073); format: functional
# T2 sequence (O75030 whole entry): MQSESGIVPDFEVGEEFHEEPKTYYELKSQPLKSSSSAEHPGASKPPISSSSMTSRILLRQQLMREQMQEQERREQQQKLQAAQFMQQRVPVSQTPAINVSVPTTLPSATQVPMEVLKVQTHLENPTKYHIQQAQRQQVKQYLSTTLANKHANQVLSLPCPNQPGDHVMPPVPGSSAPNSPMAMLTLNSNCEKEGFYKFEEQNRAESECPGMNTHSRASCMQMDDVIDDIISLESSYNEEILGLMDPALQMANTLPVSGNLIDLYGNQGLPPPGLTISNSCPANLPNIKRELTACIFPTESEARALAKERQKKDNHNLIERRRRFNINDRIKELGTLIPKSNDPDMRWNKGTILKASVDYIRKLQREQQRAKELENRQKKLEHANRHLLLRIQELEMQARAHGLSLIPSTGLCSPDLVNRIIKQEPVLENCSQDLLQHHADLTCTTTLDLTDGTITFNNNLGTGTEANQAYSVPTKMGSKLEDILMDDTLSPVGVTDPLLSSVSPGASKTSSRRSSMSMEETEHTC
# [7] = cytotoxicity toward DRD oncogenic fibroblasts, dose response, cell-based, non-viral oncogenic, luminescence (AID 1934); format: functional; settings: Homo sapiens
# BJ [8] = test: cytotoxicity toward Ras-transformed BJeLR fibroblasts, dose response, cell-based, alamar blue fluorescence, cherrypicked samples (AID 2631); format: functional; settings: Homo sapiens;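 also: confirmatory dose-response assay in RAS-dependent BJ fibroblasts engineered with TERT, LT and ST, with cytotoxicity read by fluorescence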
# [9] = molecular target: FAD-linked sulfhydryl oxidase ALR (Homo sapiens, UniProt P55789); test: inhibitors of human ALR sulfhydryl oxidase, dose response, biochemical, H2O2 detection, luminescence, cherry-pick (AID 493248)
# FAD-linked sulfhydryl oxidase ALR, sequence (P55789 whole entry): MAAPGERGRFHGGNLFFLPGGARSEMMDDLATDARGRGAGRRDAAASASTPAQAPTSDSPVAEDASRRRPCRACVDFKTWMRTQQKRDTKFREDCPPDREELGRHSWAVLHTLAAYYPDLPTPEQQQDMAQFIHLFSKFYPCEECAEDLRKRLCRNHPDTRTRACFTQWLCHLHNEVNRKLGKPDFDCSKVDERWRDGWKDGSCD
# Caspase-6 = molecular target: T3, Caspase-6 (Homo sapiens, UniProt P55212); test: human caspase-6 inhibitors, dose response, biochemical, VEID-R110 fluorescence, cherry-pick (AID 720632)
# T3 sequence (P55212 whole entry): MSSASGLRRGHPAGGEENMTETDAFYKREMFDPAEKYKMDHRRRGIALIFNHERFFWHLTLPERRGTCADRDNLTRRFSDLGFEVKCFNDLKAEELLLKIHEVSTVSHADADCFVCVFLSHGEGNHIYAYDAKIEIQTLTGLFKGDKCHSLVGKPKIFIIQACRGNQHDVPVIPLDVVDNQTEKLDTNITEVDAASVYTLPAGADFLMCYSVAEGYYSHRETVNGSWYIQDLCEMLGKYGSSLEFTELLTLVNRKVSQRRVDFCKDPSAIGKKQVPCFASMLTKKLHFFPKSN
# [10] = molecular target: T4, Apoptotic protease-activating factor 1 (Homo sapiens, UniProt O14727); format: functional
# T4 sequence (O14727 whole entry): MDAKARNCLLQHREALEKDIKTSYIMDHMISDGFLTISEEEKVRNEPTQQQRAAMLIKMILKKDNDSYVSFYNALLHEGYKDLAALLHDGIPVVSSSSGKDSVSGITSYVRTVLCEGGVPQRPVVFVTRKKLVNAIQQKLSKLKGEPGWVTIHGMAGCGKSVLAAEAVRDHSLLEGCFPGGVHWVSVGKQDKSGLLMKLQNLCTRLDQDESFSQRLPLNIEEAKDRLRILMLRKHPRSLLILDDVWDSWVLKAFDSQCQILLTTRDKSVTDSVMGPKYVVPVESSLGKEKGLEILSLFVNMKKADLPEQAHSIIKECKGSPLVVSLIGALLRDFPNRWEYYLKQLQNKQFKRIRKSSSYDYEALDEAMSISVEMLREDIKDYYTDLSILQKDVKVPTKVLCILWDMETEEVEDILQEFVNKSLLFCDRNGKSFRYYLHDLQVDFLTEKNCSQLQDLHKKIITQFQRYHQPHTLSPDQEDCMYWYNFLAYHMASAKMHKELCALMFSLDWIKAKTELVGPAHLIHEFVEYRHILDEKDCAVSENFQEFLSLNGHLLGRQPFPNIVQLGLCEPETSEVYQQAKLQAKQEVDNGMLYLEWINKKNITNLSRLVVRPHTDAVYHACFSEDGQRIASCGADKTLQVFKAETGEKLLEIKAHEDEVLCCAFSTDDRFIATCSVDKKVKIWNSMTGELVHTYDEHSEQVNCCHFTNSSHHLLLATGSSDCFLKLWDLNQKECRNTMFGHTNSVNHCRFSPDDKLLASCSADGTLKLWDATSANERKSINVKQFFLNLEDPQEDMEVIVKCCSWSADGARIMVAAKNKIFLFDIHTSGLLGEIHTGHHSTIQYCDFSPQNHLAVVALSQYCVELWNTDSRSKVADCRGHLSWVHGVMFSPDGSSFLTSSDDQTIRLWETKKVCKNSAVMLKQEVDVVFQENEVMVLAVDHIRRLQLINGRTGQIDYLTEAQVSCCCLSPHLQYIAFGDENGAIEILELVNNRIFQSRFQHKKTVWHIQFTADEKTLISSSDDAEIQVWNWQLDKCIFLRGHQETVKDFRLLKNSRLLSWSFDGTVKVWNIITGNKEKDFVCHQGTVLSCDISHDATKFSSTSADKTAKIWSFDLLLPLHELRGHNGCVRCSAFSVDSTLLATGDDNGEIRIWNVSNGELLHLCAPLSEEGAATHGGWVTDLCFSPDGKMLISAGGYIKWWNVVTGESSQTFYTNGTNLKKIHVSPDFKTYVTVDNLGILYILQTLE
# [11] = molecular target: T5, Histone-lysine N-methyltransferase NSD2 (Homo sapiens, UniProt O96028); format: biochemical
# T5 sequence (O96028 whole entry): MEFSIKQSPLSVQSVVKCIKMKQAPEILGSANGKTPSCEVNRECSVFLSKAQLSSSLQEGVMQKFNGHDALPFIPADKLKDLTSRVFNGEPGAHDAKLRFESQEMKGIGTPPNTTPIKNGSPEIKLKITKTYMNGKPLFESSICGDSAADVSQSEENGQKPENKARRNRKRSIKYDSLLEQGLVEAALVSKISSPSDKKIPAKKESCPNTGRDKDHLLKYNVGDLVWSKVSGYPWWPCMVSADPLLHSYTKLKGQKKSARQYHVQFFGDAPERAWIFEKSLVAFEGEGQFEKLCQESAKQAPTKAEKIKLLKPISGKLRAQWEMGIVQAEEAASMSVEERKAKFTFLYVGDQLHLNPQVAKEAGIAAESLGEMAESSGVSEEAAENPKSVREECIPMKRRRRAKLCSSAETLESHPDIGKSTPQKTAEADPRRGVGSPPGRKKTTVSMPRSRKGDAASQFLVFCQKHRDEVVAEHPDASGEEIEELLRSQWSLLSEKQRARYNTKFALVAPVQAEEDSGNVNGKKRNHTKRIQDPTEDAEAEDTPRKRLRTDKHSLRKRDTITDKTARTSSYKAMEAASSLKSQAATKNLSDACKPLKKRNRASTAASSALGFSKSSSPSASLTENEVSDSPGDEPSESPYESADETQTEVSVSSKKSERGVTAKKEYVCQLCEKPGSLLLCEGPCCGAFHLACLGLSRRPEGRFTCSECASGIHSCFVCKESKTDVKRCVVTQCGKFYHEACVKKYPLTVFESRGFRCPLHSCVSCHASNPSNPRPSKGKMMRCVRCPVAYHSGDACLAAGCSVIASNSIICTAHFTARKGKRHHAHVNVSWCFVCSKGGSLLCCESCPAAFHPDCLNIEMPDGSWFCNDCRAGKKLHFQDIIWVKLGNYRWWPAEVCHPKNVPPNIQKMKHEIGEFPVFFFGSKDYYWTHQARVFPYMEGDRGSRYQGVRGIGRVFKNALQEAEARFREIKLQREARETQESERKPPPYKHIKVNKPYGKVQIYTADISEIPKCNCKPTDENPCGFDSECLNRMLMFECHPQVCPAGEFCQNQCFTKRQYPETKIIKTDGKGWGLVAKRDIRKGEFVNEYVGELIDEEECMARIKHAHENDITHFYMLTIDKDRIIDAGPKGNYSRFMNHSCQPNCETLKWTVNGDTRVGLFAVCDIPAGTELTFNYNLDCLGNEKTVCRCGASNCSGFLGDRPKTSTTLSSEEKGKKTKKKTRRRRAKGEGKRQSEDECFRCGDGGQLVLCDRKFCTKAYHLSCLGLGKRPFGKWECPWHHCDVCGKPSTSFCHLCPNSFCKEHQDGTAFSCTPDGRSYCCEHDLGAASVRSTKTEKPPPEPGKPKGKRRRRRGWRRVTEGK
# Paired box protein Pax-8 = Paired box protein Pax-8 (Homo sapiens, UniProt Q06710); test: inhibitors of PAX8-driven TPO luciferase reporter, dose response, RMG-I cells, cherry-pick (AID 687027); format: functional, cell-based;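 also: luciferase reporter driven by Pax8 target thyroperoxidase promoter measured by SteadyGlo luminescence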
# Paired box protein Pax-8, sequence (Q06710 whole entry): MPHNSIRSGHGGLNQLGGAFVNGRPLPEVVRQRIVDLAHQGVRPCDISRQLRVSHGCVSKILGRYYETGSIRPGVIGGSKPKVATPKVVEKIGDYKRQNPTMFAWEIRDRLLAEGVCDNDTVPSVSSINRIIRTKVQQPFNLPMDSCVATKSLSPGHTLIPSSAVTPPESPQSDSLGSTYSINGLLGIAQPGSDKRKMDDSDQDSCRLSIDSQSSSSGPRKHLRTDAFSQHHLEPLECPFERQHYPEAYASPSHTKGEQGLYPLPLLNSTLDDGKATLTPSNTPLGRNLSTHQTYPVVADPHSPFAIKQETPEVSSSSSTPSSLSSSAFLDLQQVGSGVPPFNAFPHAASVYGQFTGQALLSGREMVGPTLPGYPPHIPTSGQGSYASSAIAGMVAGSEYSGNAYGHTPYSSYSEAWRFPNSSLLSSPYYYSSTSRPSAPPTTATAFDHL
# INS1 = test: beta cell apoptosis inhibitors, cytokine rescue, dose response, luminescence, retest (AID 449756); format: functional, cell-based; settings: Rattus norvegicus;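 also: cell death triggered by IL-1 beta plus TNF-alpha plus IFN-gamma mixture; protective hits raise ATP signal compared with cytokine alone wells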
smiles,measurement,setting,value
Cc1ccc(-c2ccccc2NC(=O)C[S+]([O-])CC(=O)Nc2ccc(C)c(Cl)c2)o1 (stereo not drawn),EC50,[1],41.5 µM (inactive)
same,EC50,[2],34.1 µM (inactive)
CC(=O)c1cccc(NC(=O)/C=C/c2ccc([N+](=O)[O-])s2)c1,EC50,BJ [3],4.95 µM (inconclusive)
same,EC50,BJ [4],> 150 µM (inconclusive)
same,EC50,BJ [5],4.44 µM (active)
same,AC50,[6],7.16 µM (active)
same,EC50,[7],5.53 µM (active)
same,EC50,BJ [8],0.545 µM (inconclusive)
NNS(=O)(=O)c1ccc2c(c1)Cc1cc(S(=O)(=O)NN)ccc1-2,EC50,[1],4.48 µM (active)
same,AC50,[9],0.079 µM (active)
same,AC50,Caspase-6,15.8 µM (active)
same,EC50,[2],89.5 µM (inactive)
COCCN1C=C2C(=O)C(C)(OC(=O)CCC(=O)OC)C(=O)C(Br)=C2C=C1c1ccc(OC)cc1 (stereo not drawn),IC50,[10],11 µM (active)
CCCCn1c(N)c(N(CCC(C)C)C(=O)COC(=O)c2ccc([N+](=O)[O-])s2)c(=O)[nH]c1=O,AC50,[11],12.3 µM (active)
same,AC50,Paired box protein Pax-8,8.14 µM (active)
CCCCn1cc[n+](C2=C([N-]S(=O)(=O)c3ccc(Br)cc3)C(=O)c3ccccc3C2=O)c1,AC50,INS1,2.86 µM (active)
same,IC50,[10],8.28 µM (active)
CCN(CC)CCNC(=O)c1ccc(CS(=O)(=O)c2ccccc2C)o1,AC50,[11],> 20 µM (inactive)
